Test results from patent US20200131176A1, “SELECTIVE INHIBITORS OF CLINICALLY IMPORTANT MUTANTS OF THE EGFR TYROSINE KINASE” (CS Pharmatech Limited, priority 2017, published 2020).
Where two headings read alike, the source gives them in different places.

Legend:
[1] = biological target: T1, INSR (Homo sapiens, UniProt P06213); test: INSR inhibition assay (Caliper mobility shift); assay type: biochemical; conditions: enzyme assay
T1 construct: purchased CARNA BIOSCIENCE 08-142

[2] = biological target: T2, IGF-1R (Homo sapiens, UniProt P08069); test: IGF-1R inhibition assay (Caliper mobility shift); assay type: biochemical; conditions: enzyme assay
T2 construct: purchased CARNA BIOSCIENCE 08-141
T2 sequence (P08069 959-1367 limits assumed): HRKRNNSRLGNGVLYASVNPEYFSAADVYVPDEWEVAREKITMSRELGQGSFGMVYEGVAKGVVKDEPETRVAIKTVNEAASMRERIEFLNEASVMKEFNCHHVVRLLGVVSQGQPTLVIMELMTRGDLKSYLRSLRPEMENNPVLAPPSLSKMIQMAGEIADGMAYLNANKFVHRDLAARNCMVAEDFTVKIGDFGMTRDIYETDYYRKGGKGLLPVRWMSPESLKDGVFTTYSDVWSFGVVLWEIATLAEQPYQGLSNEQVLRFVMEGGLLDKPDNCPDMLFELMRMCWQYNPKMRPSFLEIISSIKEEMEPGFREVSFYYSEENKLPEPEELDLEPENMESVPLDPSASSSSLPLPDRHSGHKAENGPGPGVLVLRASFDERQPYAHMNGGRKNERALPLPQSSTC

[3] = tested on: H1975 NSCLC cells xenograft (EGFR L858R/T790M double mutant); test: EGFR L858R/T790M double-mutant H1975 xenograft model; assay type: in vivo, nu/nu mice; conditions: day 10 after dosing; for Tumor Size: average ± SEM, n = 9
[4] = biological target: hERG channel (HEK 293 cell line stably expressing hERG channel) (Homo sapiens, UniProt Q12809); test: cell-based
Sequence of hERG channel (HEK 293 cell line stably expressing hERG channel) (Q12809 whole entry): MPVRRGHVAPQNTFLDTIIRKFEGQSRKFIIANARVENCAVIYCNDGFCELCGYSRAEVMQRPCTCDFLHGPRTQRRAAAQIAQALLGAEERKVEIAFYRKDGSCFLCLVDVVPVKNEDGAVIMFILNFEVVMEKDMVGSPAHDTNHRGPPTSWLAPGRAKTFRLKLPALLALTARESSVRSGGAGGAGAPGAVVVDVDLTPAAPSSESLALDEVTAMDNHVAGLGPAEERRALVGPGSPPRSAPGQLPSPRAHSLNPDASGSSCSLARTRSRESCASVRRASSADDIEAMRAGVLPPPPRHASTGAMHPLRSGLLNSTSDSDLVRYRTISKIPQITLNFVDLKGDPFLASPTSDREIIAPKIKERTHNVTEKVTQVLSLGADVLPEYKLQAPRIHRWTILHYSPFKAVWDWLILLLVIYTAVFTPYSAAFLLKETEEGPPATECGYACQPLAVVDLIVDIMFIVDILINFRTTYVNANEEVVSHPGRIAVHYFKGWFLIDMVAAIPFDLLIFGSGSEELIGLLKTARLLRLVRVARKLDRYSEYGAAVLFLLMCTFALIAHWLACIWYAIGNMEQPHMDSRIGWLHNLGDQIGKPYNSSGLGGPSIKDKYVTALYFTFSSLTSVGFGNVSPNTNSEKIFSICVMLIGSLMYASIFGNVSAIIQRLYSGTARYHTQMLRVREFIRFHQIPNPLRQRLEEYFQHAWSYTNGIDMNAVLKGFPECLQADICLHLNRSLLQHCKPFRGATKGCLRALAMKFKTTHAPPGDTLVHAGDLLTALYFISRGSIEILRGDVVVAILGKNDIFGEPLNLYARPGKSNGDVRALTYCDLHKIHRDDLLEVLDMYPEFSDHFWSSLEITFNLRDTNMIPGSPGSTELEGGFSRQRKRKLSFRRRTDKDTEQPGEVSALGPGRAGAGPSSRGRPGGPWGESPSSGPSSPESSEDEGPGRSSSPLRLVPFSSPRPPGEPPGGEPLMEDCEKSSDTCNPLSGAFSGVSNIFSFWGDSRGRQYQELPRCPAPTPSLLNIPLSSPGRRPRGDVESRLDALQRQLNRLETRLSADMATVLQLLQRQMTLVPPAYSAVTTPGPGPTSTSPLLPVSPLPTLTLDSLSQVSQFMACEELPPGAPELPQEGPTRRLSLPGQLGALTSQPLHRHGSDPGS

[5] = biological target: Wild type EGFR in A431 cells (Homo sapiens, UniProt P00533); conditions: WT (A431) IC50 nM, cellular EGFR autophosphorylation, A431, 2 h treatment then EGF stimulation 10 min
Sequence of Wild type EGFR in A431 cells (P00533 25-1210): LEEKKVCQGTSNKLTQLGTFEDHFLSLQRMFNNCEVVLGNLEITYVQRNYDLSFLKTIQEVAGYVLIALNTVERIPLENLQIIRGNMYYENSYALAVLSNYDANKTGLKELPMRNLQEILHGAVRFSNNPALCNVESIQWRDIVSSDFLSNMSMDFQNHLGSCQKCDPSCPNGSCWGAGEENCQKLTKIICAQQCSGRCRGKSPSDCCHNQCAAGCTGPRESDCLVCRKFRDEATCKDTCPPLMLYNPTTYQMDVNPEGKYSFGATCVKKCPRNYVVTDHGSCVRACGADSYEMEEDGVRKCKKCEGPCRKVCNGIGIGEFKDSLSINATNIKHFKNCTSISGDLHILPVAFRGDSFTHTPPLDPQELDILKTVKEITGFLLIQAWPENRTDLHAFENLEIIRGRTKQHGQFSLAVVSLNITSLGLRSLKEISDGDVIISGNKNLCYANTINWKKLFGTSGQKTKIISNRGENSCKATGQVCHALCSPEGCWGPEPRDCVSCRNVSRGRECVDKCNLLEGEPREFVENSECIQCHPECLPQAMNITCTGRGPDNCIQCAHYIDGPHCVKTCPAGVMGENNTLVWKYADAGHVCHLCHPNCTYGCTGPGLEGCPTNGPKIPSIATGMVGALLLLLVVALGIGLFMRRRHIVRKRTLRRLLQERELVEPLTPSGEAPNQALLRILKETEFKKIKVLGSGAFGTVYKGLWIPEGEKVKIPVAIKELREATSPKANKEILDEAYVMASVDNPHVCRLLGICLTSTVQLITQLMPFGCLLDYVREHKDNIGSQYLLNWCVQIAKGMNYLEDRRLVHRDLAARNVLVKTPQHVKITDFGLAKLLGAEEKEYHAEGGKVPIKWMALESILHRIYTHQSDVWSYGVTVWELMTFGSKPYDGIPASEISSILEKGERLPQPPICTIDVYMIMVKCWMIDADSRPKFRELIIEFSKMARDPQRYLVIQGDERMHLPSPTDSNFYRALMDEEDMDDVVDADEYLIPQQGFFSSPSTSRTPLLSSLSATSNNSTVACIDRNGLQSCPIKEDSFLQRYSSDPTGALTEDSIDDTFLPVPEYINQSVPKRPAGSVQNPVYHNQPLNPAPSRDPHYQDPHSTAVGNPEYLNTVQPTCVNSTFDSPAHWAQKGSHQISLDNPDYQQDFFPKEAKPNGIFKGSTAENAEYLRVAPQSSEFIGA

[6] = tested on: H1975 cells; test: H1975 inhibition assay (cell proliferation, CellTiter-Glo, 72 h); assay type: cell-based, human; conditions: Homo sapiens, NCI-H1975, 72 h, cellular proliferation, double mutant EGFR, read-out: NCI-H1975 IC50 (nM) DM
[7] = tested on: A431 cells; test: A431 inhibition assay (cell proliferation, CellTiter-Glo, 72 h); assay type: cell-based, human; conditions: Homo sapiens, A-431, 72 h, cellular proliferation, wild type EGFR, read-out: A431 IC50 (nM) WT
[8] = Mouse in vivo PK study; conditions: male CD1 mice, 1 mg/kg IV
Protocol: To determine the drug concentration in plasma of the compounds of the present disclosure following intravenous and oral administration in male CD 1 Mice, pharmacokinetic profile and PK parameters were obtained.
Test animals: healthy male CD1 mice (body weight 20-30 g, 18 mice, free access to food and water), provided by Sibeifu laboratory. […]
Samples collection: the healthy animals were used, weighed the bodyweight and marked at tail and cage card prior to dosing. Blood samples (0.03 mL per time point) were collected from dorsal metatarsal vein at 0.083, 0.25, 0.5, 1, 2, 4, 8, 24 h post dose for IV group and at 0.25, 0.5, 1, 2, 4, 8, 24 h post dose for PO group, the terminal time point was collected from heart (˜0.3 mL). The blood samples were put into the tube with heparin-Na coated and then put on the cold box, centrifuged at 4° C. 4000 g, 5 minutes immediately after collecting all samples per time point to get plasma. The plasma samples were stored in a freezer at −75±15° C. prior to analysis.
The drug concentration was determined by LC/MS/MS method, and the PK parameters were observed as follows.

[9] = biological target: T3, Exon 19 deletion EGFR (activating single mutant) in PC-9 cells (Homo sapiens, UniProt P00533, DEL746-750); test: Exon 19 deletion EGFR PC-9 cellular autophosphorylation assay (p-EGFR ELISA); assay type: cell-based; conditions: PC9, 2 h treatment, read-out: SM (PC9) IC50
T3 construct: cellular phosphorylation of endogenous p-EGFR; host or cells: PC9 (PC-9) human lung cell line
T3 sequence (P00533 with tags, fused parts or gaps DEL746-750): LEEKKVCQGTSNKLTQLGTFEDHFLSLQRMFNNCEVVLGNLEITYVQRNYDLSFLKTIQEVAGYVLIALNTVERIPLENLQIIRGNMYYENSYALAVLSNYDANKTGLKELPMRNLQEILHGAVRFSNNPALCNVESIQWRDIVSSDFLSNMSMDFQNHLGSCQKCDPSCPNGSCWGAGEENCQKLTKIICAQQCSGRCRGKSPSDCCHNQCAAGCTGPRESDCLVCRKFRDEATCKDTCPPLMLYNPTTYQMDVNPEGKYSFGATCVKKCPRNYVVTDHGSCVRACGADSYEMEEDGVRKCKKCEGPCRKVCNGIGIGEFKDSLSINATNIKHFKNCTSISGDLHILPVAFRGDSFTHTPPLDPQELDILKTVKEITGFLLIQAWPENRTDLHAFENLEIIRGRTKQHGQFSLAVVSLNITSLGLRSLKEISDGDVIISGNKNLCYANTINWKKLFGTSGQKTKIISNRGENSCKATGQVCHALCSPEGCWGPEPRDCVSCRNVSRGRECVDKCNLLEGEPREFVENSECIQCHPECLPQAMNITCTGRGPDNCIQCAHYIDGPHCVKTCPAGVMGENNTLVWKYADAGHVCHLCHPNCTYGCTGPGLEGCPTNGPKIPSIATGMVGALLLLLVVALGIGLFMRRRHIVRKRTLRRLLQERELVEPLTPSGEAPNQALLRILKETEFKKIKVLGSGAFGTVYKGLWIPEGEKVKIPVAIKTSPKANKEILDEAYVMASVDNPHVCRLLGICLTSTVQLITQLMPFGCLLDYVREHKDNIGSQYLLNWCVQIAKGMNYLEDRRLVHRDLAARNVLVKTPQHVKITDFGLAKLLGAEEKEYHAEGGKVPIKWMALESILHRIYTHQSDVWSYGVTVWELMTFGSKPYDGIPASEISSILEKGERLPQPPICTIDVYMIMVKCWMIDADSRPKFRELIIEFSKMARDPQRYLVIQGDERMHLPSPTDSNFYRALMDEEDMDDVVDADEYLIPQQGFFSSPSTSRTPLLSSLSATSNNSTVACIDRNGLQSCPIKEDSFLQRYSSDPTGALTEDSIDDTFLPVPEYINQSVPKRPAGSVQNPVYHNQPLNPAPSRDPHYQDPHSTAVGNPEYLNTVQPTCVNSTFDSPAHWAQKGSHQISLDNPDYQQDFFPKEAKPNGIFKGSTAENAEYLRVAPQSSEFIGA

[10] = biological target: T4, L858R/T790M double mutant EGFR in H1975 cells (Homo sapiens, UniProt P00533, L858R/T790M); test: L858R/T790M double mutant H1975 autophosphorylation inhibition assay (ELISA); assay type: cell-based; conditions: cellular EGFR autophosphorylation, H1975, 2 h treatment; read-out: DM (H1975) IC50
T4 construct: endogenous in cells; host or cells: H1975 cells

[11] = tested on: PC-9 cells; test: PC-9 growth inhibition assay (cell proliferation, CellTiter-Glo, 72 h); assay type: cell-based, human; conditions: Homo sapiens, PC-9, 72 h, cellular proliferation, PC9 cells, single mutant EGFR, read-out: PC9 IC50 (nM) SM
[12] = Mouse in vivo PK study; conditions: mouse, plasma, male CD1 mice, 10 mg/kg PO

T1 sequence (P06213 1005-1382 limits assumed): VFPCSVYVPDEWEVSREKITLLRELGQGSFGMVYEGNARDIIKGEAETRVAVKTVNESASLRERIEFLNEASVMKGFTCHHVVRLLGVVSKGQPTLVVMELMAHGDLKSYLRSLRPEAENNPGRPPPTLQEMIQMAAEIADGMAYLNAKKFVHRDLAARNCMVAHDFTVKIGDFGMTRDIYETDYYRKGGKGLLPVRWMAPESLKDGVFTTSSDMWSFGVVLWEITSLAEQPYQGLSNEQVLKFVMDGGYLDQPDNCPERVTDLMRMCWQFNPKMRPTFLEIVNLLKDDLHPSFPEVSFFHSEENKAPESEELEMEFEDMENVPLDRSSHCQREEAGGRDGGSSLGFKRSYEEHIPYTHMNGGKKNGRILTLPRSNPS

IC50 [1]: 2310 nM
IC50 [2]: 2090 nM
IC50 [5]: 72.5 nM
IC50 [6]: 2.6 nM
IC50 [7]: 1090 nM
F ([8]; 10 mg/kg PO): 46.7%
AUC ([8]; mouse, plasma): 168 ng·h/mL
clearance ([8]; mouse, plasma): 100 mL/min/kg
half-life ([8]; mouse, plasma, read-out: T1/2 (IV) (converted)): 0.92 h
IC50 [9]: 8.35 nM
IC50 [10]: 7.52 nM
IC50 [11]: 1.82 nM
AUC [12]: 784 ng·h/mL
Cmax [12]: 117 ng/mL
half-life ([12]; read-out: T1/2 (PO) (converted)): 2.67 h
SMILES: C=CC(=O)Nc1cc(Nc2nccc(-n3nc(N(C)C)c4cc(Cl)sc43)n2)c(OC)cc1N(C)CCN(C)C [Example 6, N-(5-((4-(5-Chloro-3-(dimethylamino)-1H-thieno[2,3-c]pyrazol-1-yl)pyrimidin-2-yl)amino)-2-((2-(dimethylamino)ethyl)(methyl)amino)-4-methoxyphenyl)acrylamide]
TGI (tumor growth inhibition) ([3]; 5 mg/kg): 99.56%
TRTV/CRTV (relative tumor volume) ([3]; 5 mg/kg): 17.49%
Tumor Size ([3]; 5 mg/kg): 203 ± 24 mm^3
TGI (tumor growth inhibition) ([3]; 15 mg/kg): 114.04%
TRTV/CRTV (relative tumor volume) ([3]; 15 mg/kg): 5.34%
Tumor Size ([3]; 15 mg/kg): 63 ± 30 mm^3
TGI (tumor growth inhibition) ([3]; 30 mg/kg): 117.41%
TRTV/CRTV (relative tumor volume) ([3]; 30 mg/kg): 2.42%
Tumor Size ([3]; 30 mg/kg): 28 ± 9 mm^3
IC50 [4]: 2550 nM
